This is an account of results in US4077999A, “Novel oxime ethers” (Egyt Gyogyszervegyeszeti Gyar, priority 1976, dated 1978).

Series [1] in a line: in vivo. As to conditions: mouse.
The subject of another series is reserpine. As to the kind of experiment: Reserpine antagonistic effect, oral administration. Type of series: in vivo. Particulars: for ED50: Mus musculus, mice, oral administration, read-out: Reserpine antagonism ED50. On the procedure:
(§1) The tetrabenazine-reserpine antagonistic effect was investigated on mice in groups of ten animals each, at oral administration. The inhibition or suspension of the effect of the observed maximum dose was recorded, and the ED50 values were calculated on the basis of the dose vs. effect curves.

A further series has as its system tetrabenazine. Kind of series: Tetrabenazine antagonistic effect, oral administration. Type of series: in vivo. Particulars: for ED50: Mus musculus, read-out: Tetrabenazine antagonism, ED50. On the procedure: as §1
Series [2] can be described thus: in vivo.
The next series concerns isolated rat-ileum. As to the kind of experiment: Spasmolytic effect on non-striated muscles in isolated rat-ileum (method of Brock et al.). Particulars: related to papaverine. On the procedure: The spasmolytic effect on non-striated muscles was determined in isolated rat-ileum by the method of Brock et al. (Brock, N., Geks, J. and Lorenz, D.: Arch. Exper. Path. u. Pharmacol. 215, 492 /1952/), applying papaverine as reference substance. In order to characterize the efficiency of an individual compound, the efficiency related to that of papaverine and the LD50 values observed on oral administration are shown in Table II.

The subject of the next series is ischiadic nerve of rats. Kind of series: Local analgesic effect (method of Truant and d'Amato), motor paralysis and its duration. Particulars: for Duration, minutes (o.5%): 0.5 % concentration; for Duration, minutes (o.5%) / Duration, minutes (1.0%): duration of local analgesic effect (motor paralysis); for Duration, minutes (1.0%): 1.0 % concentration; for Relative efficiency: local analgesic effect, referred to Lidocaine. Type of series: in vivo. The source says: The local analgesic effect was investigated on the ischiadic nerve of rats by means of the method of Truant and d'Amato (Truant, A.P. and Wiedling, S.: Acta Chirurg. Scand. 116, 351 /1958/). Lidocaine served as reference substance. […]

A further series has as its system nicotine lethality. As to the kind of experiment: Inhibition of nicotine lethality (method of Stone), oral administration. Type of series: in vivo, mice. As to conditions: for Therapeutic index: LD50/ED50; for ED50: Mus musculus.
Setting [3] is: mice, oral administration, Table IV.
Setting [4] is: oral administration, Table II, read-out: LD50 p.o.
Where [5] appears, read: mice, oral administration, Table III.
The mark [6] stands for this setting: inhibition of nicotine lethality.
Setting [7] is: inhibition of nicotine lethality, mice, oral administration, read-out: ED50.

Where two headings read alike, the source gives them in different places.

As usually defined, the LD50 is the dose expected to kill half of the subjects tested. As usually defined, the ED50 is the midpoint of the dose-response relation. In turn, `CN(C)CCCON=C1CCCCC1=Cc1ccccc1Cl` [Example 21, 1-(Dimethylaminopropoxyimino)-2-(o-chlorobenzal)-cyclohexane] gave an LD50 in “in vivo [1]” (setting [3]) of 1500 mg/kg. Also, the ED50 with reserpine is more than 100 mg/kg; with tetrabenazine (po), 22 mg/kg. The Therapeutic index worked out at 15.0 with reserpine (reserpine antagonism) and 68.2 in the series with tetrabenazine (tetrabenazine antagonism).

Consider `CC(C)N(CCON=C1CCCCCC1=Cc1ccccc1)C(C)C` [Example 11, 2-Benzal-1-(2'-diisopropylaminoethoxyimino)-cycloheptane], for which, in the series “in vivo [2]” (setting [4]), the LD50 turned out to be 325 mg/kg. In the series with isolated rat-ileum, the Relative efficiency was found to be 3.01.

In the case of `COc1ccccc1C=C1CCCCC1=NOCCCN(C)C` [Example 15, 1-(3'-Dimethylaminopropoxyimino)-2-(o-methoxybenzal)-cyclohexane], in the series on ischiadic nerve of rats, the “Duration, minutes (o.5%)” value turned out to be 92 min; the “Duration, minutes (1.0%)” value amounted to 160 min; the Relative efficiency came to 1.7. This compound had an LD50 in the series “in vivo [2]” (po) of 880 mg/kg.

In the case of `CC(C)N(CCON=C1CCCC1=Cc1ccccc1)C(C)C` [Example 8, 2-Benzal-1-(2'-diisopropylaminoethoxyimino)-cyclopentane], in the series on ischiadic nerve of rats, the “Duration, minutes (o.5%)” value was 66 min; the “Duration, minutes (1.0%)” value is 129 min; the Relative efficiency stood at 1.1. For the same compound, the LD50 in the series “in vivo [2]” (po) is 450 mg/kg.

For `COc1ccccc1C=C1CCCCC1=NOCC(C)CN(C)C` (stereo not drawn) [Example 18, 1-(2'-Methyl-3'-dimethylaminopropoxyimino)-2-(o-methoxybenzal)-cyclohexane], the LD50 in “in vivo [2]” (setting [4]) turned out to be 650 mg/kg. The compound further gave a Relative efficiency in the series on isolated rat-ileum of 2.43.

In the case of `COc1ccc(C=C2CCCCCC2=NOCCCN(C)C)cc1` [Example 13, 1-(3'-Dimethylaminopropoxyimino)-2-(p-methoxybenzal)-cycloheptane], the LD50 in “in vivo [1]” (setting [3]) and in “in vivo [2]” (setting [4]) was 1000 mg/kg throughout. Besides, the ED50 in the series with reserpine amounted to 80 mg/kg; with tetrabenazine (po), 70 mg/kg. Moreover, the Therapeutic index in the series on reserpine (reserpine antagonism) is listed as 12.5; in the series on tetrabenazine (tetrabenazine antagonism) it was 14.3. The Relative efficiency in the series with isolated rat-ileum came to 1.96.

With `CCN(CC)CC(=O)Nc1c(C)cccc1C` [Lidocaine, reference compound], in the series on ischiadic nerve of rats, the “Duration, minutes (o.5%)” value was 28 min and the “Duration, minutes (1.0%)” value worked out at 52 min.

With `CN(C)CCCON=C1CCCCCC1=Cc1ccc(Cl)cc1` [Example 12, 1-(3'-Dimethylaminopropoxyimino)-2-(p-chlorobenzal)-cycloheptane], the LD50 in “in vivo [1]” (setting [5]) stood at 1450 mg/kg. In the series with nicotine lethality (setting [6]), this compound came in with a Therapeutic index of 36.3. For the same compound, in the series on nicotine lethality (setting [7]), the 50% effective dose (ED50) stood at 40 mg/kg.

For `CN(C)CCC=C1c2ccccc2CCc2ccccc21` [Amitriptylin, reference compound], the LD50 in “in vivo [1]” (setting [3]) amounted to 225 mg/kg. Besides, the ED50 is 65 mg/kg in the series with reserpine and 13 mg/kg with tetrabenazine (po). For the same compound, the Therapeutic index in the series with reserpine (reserpine antagonism) is 3.5; in the series with tetrabenazine (tetrabenazine antagonism), 17.3.

Turning to `CCN(CC)CCON=C1CCCC1=Cc1ccccc1` [Example 7, 2-Benzal-1-(2'-diethylaminoethoxyimino)-cyclopentane], in the series with ischiadic nerve of rats, the “Duration, minutes (o.5%)” value was 94 min; the “Duration, minutes (1.0%)” value came to 127 min; the Relative efficiency is 1.8. The compound also yielded a median lethal dose (LD50) in “in vivo [2]” (po) of 210 mg/kg.

As to `OC(CCN1CCCCC1)(c1ccccc1)C1CCCCC1` (stereo not drawn) [Trihexyphenidyl (Artane), Trihexyphenidyl, reference compound], the ED50 with nicotine lethality (setting [7]) stood at 40 mg/kg.

`CN(C)CCCON=C1CCCCC1=Cc1ccc(Cl)cc1` [Example 19, 1-(Dimethylaminopropoxyimino)-2-(p-chlorobenzal)-cyclohexane] displayed an LD50 in the series “in vivo [1]” (setting [3]) of 900 mg/kg. Besides, the figures for the ED50 in the series with reserpine and in the series on tetrabenazine (po) were more than 180 mg/kg and 34 mg/kg, respectively. Moreover, the Therapeutic index with reserpine (reserpine antagonism) turned out to be 5.0; in the series with tetrabenazine (tetrabenazine antagonism), 26.5.

As to `CN(C)CCON=C1CCCC1=Cc1ccccc1` [Example 27, 2-Benzal-1-(2'-dimethylaminoethoxyimino)-cyclopentane], in “in vivo [1]” (setting [3]), the median lethal dose (LD50) turned out to be 600 mg/kg. Besides, the ED50 with reserpine turned out to be 18 mg/kg; in the series on nicotine lethality (po), 47 mg/kg; in the series with tetrabenazine (po) it was 120 mg/kg. Besides, the Therapeutic index in the series with reserpine (reserpine antagonism) is recorded as 33.0; in the series on nicotine lethality (setting [6]) it was 12.8; in the series with tetrabenazine (tetrabenazine antagonism), 5.0.

In the case of `CCN(CC)CCON=C1CCCCC1=Cc1ccccc1` [Example 2, 2-Benzal-1-(2'-diethylaminoethoxyimino)-cyclohexane], in the series on ischiadic nerve of rats, the “Duration, minutes (o.5%)” value was 72 min; the “Duration, minutes (1.0%)” value worked out at 111 min; the Relative efficiency stood at 3.2. In addition, the LD50 in “in vivo [2]” (po) was found to be 430 mg/kg. The compound further gave a Relative efficiency with isolated rat-ileum of 1.73.

In turn, `NCCON=C1CCCCC1=Cc1ccccc1` [Example 4, 1-(2'-Aminoethoxyimino)-2-benzalcyclohexane] displayed a 50% lethal dose (LD50) in the series “in vivo [1]” (setting [5]) of 400 mg/kg. The compound further had a Therapeutic index in the series on nicotine lethality (setting [6]) of 36.4. For the same compound, in the series with nicotine lethality (setting [7]), the ED50 amounted to 11 mg/kg.

With `CN(C)CCON=C1CCCC1=Cc1ccccc1` [Example 5, 2-Benzal-1-(2'-dimethylaminoethoxyimino)-cyclopentane], in the series on ischiadic nerve of rats, the “Duration, minutes (o.5%)” value is 68 min; the “Duration, minutes (1.0%)” value came to 96 min; the Relative efficiency amounted to 1.8. Further, the LD50 in the series “in vivo [2]” (po) is 450 mg/kg.

Regarding `CN(C)CCCON=C1CCCCC1=Cc1ccccc1` [Example 1, 2-Benzal-1-(3'-dimethylaminopropoxyimino)-cyclohexane], the LD50 in the series “in vivo [1]” (po) and in “in vivo [2]” (po) was 560 mg/kg throughout. Further, the ED50 with reserpine was determined as 27 mg/kg; with tetrabenazine (po) it was 80 mg/kg. Further, the Therapeutic index in the series with reserpine (mouse, in vivo, po) stood at 20.7; with tetrabenazine (mouse, in vivo, po), 7.0. Also, the “Duration, minutes (o.5%)” value in the series on ischiadic nerve of rats came to 99 min. Also, the “Duration, minutes (1.0%)” value in the series with ischiadic nerve of rats was 115 min. Moreover, the Relative efficiency with ischiadic nerve of rats amounted to 1.7.

`COc1ccc(Cc2nccc3cc(OC)c(OC)cc23)cc1OC` [Papaverine, reference compound]: in “in vivo [2]” (setting [4]), the LD50 was 367 mg/kg.

As for `CN(C)CCCON=C1CCCCCC1=Cc1ccccc1` [Example 10, 2-Benzal-1-(3'-dimethylaminopropoxyimino)-cycloheptane], the median lethal dose (LD50) in “in vivo [2]” (setting [4]) worked out at 550 mg/kg. The compound also gave a Relative efficiency in the series on isolated rat-ileum of 2.42.
